{"source": "patent US20200368247A1", "about": "“CENICRIVIROC FOR THE TREATMENT OF FIBROSIS” (Tobira Therapeutics, Inc., priority 2014, published 2020)", "key": {"[1]": {"assay": "Study 202 treatment-emergent laboratory abnormalities (DAIDS grade)", "type": "in vivo, human", "from_the_text": "The 12th subject (Subject 42001) had 2 consecutive CPK elevations (Grade 3 followed by Grade 4) that returned to normal values while continuing treatment at a subsequent visit. None of the CPK elevations were associated with clinical symptoms; no subjects discontinued due to CPK elevations and there were no differences in AEs related to musculoskeletal disorders between the CVC and EFV arms.\nThe number of subjects with graded treatment-emergent laboratory abnormalities in selected liver parameters of interest is shown in Table 34. No Grade 4 ALT or AST elevations were observed. Except for one Grade 3 AST elevation, all ALT and AST elevations were Grade 1 or Grade 2. […] All abnormalities in bilirubin were Grade 1 or Grade 2. […]"}, "[2]": {"assay": "Study 202 biomarkers of inflammation", "type": "in vivo, human", "procedure": "As an exploratory analysis, levels of inflammation biomarkers MCP-1, sCD14, high sensitivity C-reactive protein [hs-CRP], interleukin-6 [IL-6], D-dimer, and fibrinogen) were measured. Baseline values and changes from baseline at Week 24 and Week 48 of MCP-1, sCD14, hs-CRP, IL-6, D-dimer, and fibrinogen are summarized in Table 25.\nThe sCD14 samples were originally analyzed in 2 separate batches: Batch 1 included samples leading up to the Week 24 primary analysis and Batch 2 included Week 32 and Week 48 (end of study) samples. A repeat analysis of archived samples all analyzed in one batch was conducted for consistency in analysis across time points. To control for the effects of covariates, a linear mixed-model repeated-measures analysis was conducted on the changes from baseline in sCD14 (analysis dated September 2013)."}, "[3]": {"details": "CVC 100 mg (N = 58), through Week 48"}, "[4]": {"details": "CVC 200 mg (N = 57), through Week 48"}}, "data": [{"compound": "CCCCOCCOc1ccc(-c2ccc3c(c2)/C=C(/C(=O)Nc2ccc([S@@+]([O-])Cc4cncn4CCC)cc2)CCCN3CC(C)C)cc1", "note": "[CVC, (S)-8-[4-(2-Butoxyethoxy)phenyl]-1-isobutyl-N-(4-{[(1-propyl-1H-imidazol-5-yl)methyl]sulfinyl}phenyl)-1,2,3,4-tetrahydro-1-benzazocine-5-carboxamide]", "values": [{"measurement": "AST abnormality, worst Grade 3", "setting": "[1]; CVC 100 mg (N = 58)", "value": "1 (2%) n (%)"}, {"measurement": "AST abnormality, worst Grade 4", "setting": "[1]; CVC 100 mg (N = 58)", "value": "0 n (%)"}, {"measurement": "Alanine aminotransferase (ALT) abnormality, any worst grade", "setting": "[1]; CVC 100 mg (N = 58)", "value": "7 (12%) n (%)"}, {"measurement": "Aspartate aminotransferase (AST) abnormality, any worst grade", "setting": "[1]; CVC 100 mg (N = 58)", "value": "11 (19%) n (%)"}, {"measurement": "Bilirubin abnormality, any worst grade", "setting": "[1]; CVC 100 mg (N = 58)", "value": "4 (7%) n (%)"}, {"measurement": "Bilirubin abnormality, worst Grade 1", "setting": "[1]; CVC 100 mg (N = 58)", "value": "1 (2%) n (%)"}, {"measurement": "Bilirubin abnormality, worst Grade 2", "setting": "[1]; CVC 100 mg (N = 58)", "value": "3 (5%) n (%)"}, {"measurement": "Bilirubin abnormality, worst Grade 3", "setting": "[1]; CVC 100 mg (N = 58)", "value": "0 n (%)"}, {"measurement": "Bilirubin abnormality, worst Grade 4", "setting": "[1]; CVC 100 mg (N = 58)", "value": "0 n (%)"}, {"measurement": "AST increased, Grade 3", "setting": "[1]; [3]", "value": "1 (2%) n (%)"}, {"measurement": "Any Grade 3 laboratory abnormality", "setting": "[1]; [3]", "value": "4 (7%) n (%)"}, {"measurement": "CPK increased, Grade 3", "setting": "[1]; [3]", "value": "2 (3%) n (%)"}, {"measurement": "Any graded (Grade 1-4) laboratory abnormality, %", "setting": "[1]; CVC 200 mg", "value": 96, "unit": "%"}, {"measurement": "Worst Grade 1 laboratory abnormality, %", "setting": "[1]; CVC 200 mg", "value": 28, "unit": "%"}, {"measurement": "Worst Grade 2 laboratory abnormality, %", "setting": "[1]; CVC 200 mg", "value": 47, "unit": "%"}, {"measurement": "Worst Grade 3 laboratory abnormality, %", "setting": "[1]; CVC 200 mg", "value": 16, "unit": "%"}, {"measurement": "Worst Grade 4 laboratory abnormality, %", "setting": "[1]; CVC 200 mg", "value": 5, "unit": "%"}, {"measurement": "ALT abnormality, worst Grade 1", "setting": "[1]; CVC 200 mg (N = 57)", "value": "6 (11%) n (%)"}, {"measurement": "ALT abnormality, worst Grade 2", "setting": "[1]; CVC 200 mg (N = 57)", "value": "2 (4%) n (%)"}, {"measurement": "ALT abnormality, worst Grade 3", "setting": "[1]; CVC 200 mg (N = 57)", "value": "0 n (%)"}, {"measurement": "ALT abnormality, worst Grade 4", "setting": "[1]; CVC 200 mg (N = 57)", "value": "0 n (%)"}, {"measurement": "AST abnormality, worst Grade 1", "setting": "[1]; CVC 200 mg (N = 57)", "value": "6 (11%) n (%)"}, {"measurement": "AST abnormality, worst Grade 2", "setting": "[1]; CVC 200 mg (N = 57)", "value": "4 (7%) n (%)"}, {"measurement": "AST abnormality, worst Grade 3", "setting": "[1]; CVC 200 mg (N = 57)", "value": "0 n (%)"}, {"measurement": "AST abnormality, worst Grade 4", "setting": "[1]; CVC 200 mg (N = 57)", "value": "0 n (%)"}, {"measurement": "Alanine aminotransferase (ALT) abnormality, any worst grade", "setting": "[1]; CVC 200 mg (N = 57)", "value": "8 (14%) n (%)"}, {"measurement": "Aspartate aminotransferase (AST) abnormality, any worst grade", "setting": "[1]; CVC 200 mg (N = 57)", "value": "10 (18%) n (%)"}, {"measurement": "Bilirubin abnormality, any worst grade", "setting": "[1]; CVC 200 mg (N = 57)", "value": "3 (5%) n (%)"}, {"measurement": "Bilirubin abnormality, worst Grade 1", "setting": "[1]; CVC 200 mg (N = 57)", "value": "2 (4%) n (%)"}, {"measurement": "Bilirubin abnormality, worst Grade 2", "setting": "[1]; CVC 200 mg (N = 57)", "value": "1 (2%) n (%)"}, {"measurement": "Bilirubin abnormality, worst Grade 3", "setting": "[1]; CVC 200 mg (N = 57)", "value": "0 n (%)"}, {"measurement": "Bilirubin abnormality, worst Grade 4", "setting": "[1]; CVC 200 mg (N = 57)", "value": "0 n (%)"}, {"measurement": "AST increased, Grade 3", "setting": "[1]; [4]", "value": "0 n (%)"}, {"measurement": "AST increased, Grade 4", "setting": "[1]; [4]", "value": "0 n (%)"}, {"measurement": "Any Grade 3 laboratory abnormality", "setting": "[1]; [4]", "value": "9 (16%) n (%)"}, {"measurement": "Any Grade 3 or Grade 4 laboratory abnormality", "setting": "[1]; [4]", "value": "12 (21%) n (%)"}, {"measurement": "Any Grade 4 laboratory abnormality", "setting": "[1]; [4]", "value": "3 (5%) n (%)"}, {"measurement": "Aspartate aminotransferase (AST) increased (Grade 3 or 4)", "setting": "[1]; [4]", "value": "0 n (%)"}, {"measurement": "CPK increased, Grade 3", "setting": "[1]; [4]", "value": "6 (11%) n (%)"}, {"measurement": "CPK increased, Grade 4", "setting": "[1]; [4]", "value": "3 (5%) n (%)"}, {"measurement": "Creatine phosphokinase (CPK) increased (Grade 3 or 4)", "setting": "[1]; [4]", "value": "9 (16%) n (%)"}, {"measurement": "Fibrinogen decreased (Grade 3 or 4)", "setting": "[1]; [4]", "value": "2 (4%) n (%)"}, {"measurement": "Fibrinogen decreased, Grade 3", "setting": "[1]; [4]", "value": "2 (4%) n (%)"}, {"measurement": "Fibrinogen decreased, Grade 4", "setting": "[1]; [4]", "value": "0 n (%)"}, {"measurement": "Hemoglobin decreased (Grade 3 or 4)", "setting": "[1]; [4]", "value": "0 n (%)"}, {"measurement": "Hemoglobin decreased, Grade 3", "setting": "[1]; [4]", "value": "0 n (%)"}, {"measurement": "Hemoglobin decreased, Grade 4", "setting": "[1]; [4]", "value": "0 n (%)"}, {"measurement": "Neutrophils decreased (Grade 3 or 4)", "setting": "[1]; [4]", "value": "0 n (%)"}, {"measurement": "Neutrophils decreased, Grade 3", "setting": "[1]; [4]", "value": "0 n (%)"}, {"measurement": "Neutrophils decreased, Grade 4", "setting": "[1]; [4]", "value": "0 n (%)"}, {"measurement": "Phosphate decreased (Grade 3 or 4)", "setting": "[1]; [4]", "value": "2 (4%) n (%)"}, {"measurement": "Phosphate decreased, Grade 3", "setting": "[1]; [4]", "value": "2 (4%) n (%)"}, {"measurement": "Phosphate decreased, Grade 4", "setting": "[1]; [4]", "value": "0 n (%)"}, {"measurement": "sCD14 Baseline value, Mean", "setting": "[2]; CVC 100 mg", "value": "1.8e+06", "unit": "pg/mL"}, {"measurement": "sCD14 change from baseline at Week 12, Mean", "setting": "[2]; CVC 100 mg", "value": -140000, "unit": "pg/mL"}, {"measurement": "sCD14 change from baseline at Week 12, Median", "setting": "[2]; CVC 100 mg", "value": -160000, "unit": "pg/mL"}, {"measurement": "sCD14 change from baseline at Week 24, Mean", "setting": "[2]; CVC 100 mg", "value": -190000, "unit": "pg/mL"}, {"measurement": "sCD14 change from baseline at Week 24, Median", "setting": "[2]; CVC 100 mg", "value": -180000, "unit": "pg/mL"}, {"measurement": "sCD14 change from baseline at Week 32, Mean", "setting": "[2]; CVC 100 mg", "value": 110000, "unit": "pg/mL"}, {"measurement": "sCD14 change from baseline at Week 32, Median", "setting": "[2]; CVC 100 mg", "value": 120000, "unit": "pg/mL"}, {"measurement": "sCD14 change from baseline at Week 48, Mean", "setting": "[2]; CVC 100 mg", "value": 100000, "unit": "pg/mL"}, {"measurement": "sCD14 change from baseline at Week 48, Median", "setting": "[2]; CVC 100 mg", "value": 100000, "unit": "pg/mL"}, {"measurement": "sCD14 change from baseline at Week 12, Mean", "setting": "[2]; CVC 200 mg", "value": -230000, "unit": "pg/mL"}, {"measurement": "sCD14 change from baseline at Week 12, Median", "setting": "[2]; CVC 200 mg", "value": -210000, "unit": "pg/mL"}, {"measurement": "sCD14 change from baseline at Week 24, Mean", "setting": "[2]; CVC 200 mg", "value": -230000, "unit": "pg/mL"}, {"measurement": "sCD14 change from baseline at Week 24, Median", "setting": "[2]; CVC 200 mg", "value": -190000, "unit": "pg/mL"}, {"measurement": "sCD14 change from baseline at Week 32, Mean", "setting": "[2]; CVC 200 mg", "value": -20000, "unit": "pg/mL"}, {"measurement": "sCD14 change from baseline at Week 32, Median", "setting": "[2]; CVC 200 mg", "value": -20000, "unit": "pg/mL"}, {"measurement": "sCD14 change from baseline at Week 48, Mean", "setting": "[2]; CVC 200 mg", "value": -40000, "unit": "pg/mL"}, {"measurement": "sCD14 change from baseline at Week 48, Median", "setting": "[2]; CVC 200 mg", "value": -40000, "unit": "pg/mL"}, {"measurement": "plasma MCP-1 over time", "setting": "[2]; Study 202, up to Week 48", "value": "increases over time"}]}]}
